Values quoted from earlier work in patent publication US20120238559A1, “NOVEL COMPOUNDS” (GLAXO GROUP LIMITED, priority 2009, published 2012).

Key:
[1] = system: neutrophils
[2] = system: Class I PI3-kinases; settings: each of the four Class I PI3-kinases; read-out: IC50 against each of the various Class I PI3-kinases
[3] = system: neutrophils; settings: treatment of neutrophils; Thelen et al. 1994

| Compound | neutrophil migration and superoxide release [1] | IC50 [2] [nM] | fMLP-induced respiratory burst response [3] |
| --- | --- | --- | --- |
| O=c1cc(N2CCOCC2)oc2c(-c3ccccc3)cccc12 [LY294002] | block neutrophil migration and superoxide release | – | – |
| COC[C@H]1OC(=O)c2coc3c2[C@@]1(C)C1=C(C3=O)[C@@H]2CCC(=O)[C@@]2(C)C[C@H]1OC(C)=O [wortmannin] | block neutrophil migration and superoxide release | 1 to 10 | prevents the fMLP-induced respiratory burst response |
